Assay results reported in patent publication US9796709B2, “5-hydroxy-4-(trifluoromethyl)pyrazolopyridine derivative” (Daiichi Sankyo Company, Limited, priority 2013, dated 2017).

Biological target: T1, LCAT (Homo sapiens, UniProt P04180)
T1 construct: The obtained fraction was dialyzed against phosphate-buffered saline (pH 7.4) and used as an enzyme source and an acceptor for LCAT; from tissue; host or cells: HDL3 fraction (1.125 < specific gravity < 1.210 g/mL) of plasma from a healthy person
T1 sequence (P04180 25-440): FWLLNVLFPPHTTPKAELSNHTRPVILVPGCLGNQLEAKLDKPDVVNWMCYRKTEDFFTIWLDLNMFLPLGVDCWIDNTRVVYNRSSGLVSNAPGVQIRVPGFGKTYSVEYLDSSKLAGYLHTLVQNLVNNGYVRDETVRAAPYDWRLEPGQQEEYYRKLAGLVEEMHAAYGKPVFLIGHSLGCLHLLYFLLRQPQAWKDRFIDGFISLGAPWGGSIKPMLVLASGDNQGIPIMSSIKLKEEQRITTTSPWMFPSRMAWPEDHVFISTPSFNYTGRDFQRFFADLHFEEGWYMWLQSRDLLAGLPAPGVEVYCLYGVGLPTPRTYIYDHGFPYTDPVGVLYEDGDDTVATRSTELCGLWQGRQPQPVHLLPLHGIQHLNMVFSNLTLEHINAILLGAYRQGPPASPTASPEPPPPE
Assay: LCAT activity measurement (in vitro), [14C]cholesterol esterification with HDL3 fraction
Format: biochemical
Conditions: HDL3 fraction from plasma of a healthy person as enzyme source and acceptor; 37° C., approximately 16 hours; relative to sample without test drug; read-out: EC50 of LCAT activation
Description: A fraction composed of HDL3 (1.125 <specific gravity <1.210 g/mL) was obtained from the plasma of a healthy person by density gradient centrifugation. The obtained fraction was dialyzed against phosphate-buffered saline (pH 7.4) and used as an enzyme source and an acceptor for LCAT. Each test drug was prepared by dissolution in dimethyl sulfoxide. [^14C]Cholesterol containing DTNB (Ellman's reagent, final concentration: 0.5 mM), mercaptoethanol (final concentration: 12.5 mM), and 0.6% bovine serum albumin was added to phosphate-buffered saline (pH 7.4) containing 1 mg/mL HDL3, and the test drug was further added thereto at varying concentrations to adjust the whole amount to 80 μL. This mixture was incubated at 37° C. for approximately 16 hours. Then, a mixed solution of hexane and isopropanol (mixing ratio=3:2) was added thereto to stop the reaction. After stirring, the hexane layer was collected, and this layer was evaporated to dryness. A chloroform solution (concentration: 10 mg/mL) was added thereto, and the mixture was spotted onto a thin-layer silica gel plate and developed using a mixed solution of hexane, diethyl ether, and ethyl acetate (mixing ratio=85:15:2). The radioactivity of a portion corresponding to cholesterol oleate was measured using an imaging analyzer BAS-2500 (manufactured by Fujifilm Corp.). A sample non-supplemented with the test drug was similarly treated and assayed. The EC50 value of LCAT activation was calculated according to the expression given below relative to LCAT activity in the sample non-supplemented with the test drug.
[formula] • wherein X represents the logarithm of the concentration of the test drug; • Y represents the responsiveness (LCAT activity) of the test drug; • Top represents the maximum value (maximum plateau); • Bottom represents the minimum value (minimum plateau); and • EC50 represents the 50% effective concentration.

Structure (SMILES) | EC50
N#Cc1cnc(N2CCC(c3n[nH]c4c3[C@@H](C(F)(F)F)[C@@H](O)C(=O)N4)CC2)cn1 (single isomer, unassigned) [Example 28, (+)-5-{4-[cis-5-Hydroxy-6-oxo-4-(trifluoromethyl)-4,5,6,7-tetrahydro-1H-pyrazolo[3,4-b]pyridin-3-yl]piperidin-1-yl}pyrazine-2-carbonitrile] | 160 nM
CC(C)Oc1ccc(N2CCC(c3n[nH]c4c3[C@@H](C(F)(F)F)[C@@H](O)C(=O)N4)CC2)nc1 (racemic) [Example 5, cis-5-Hydroxy-3-[1-(5-isopropoxypyridin-2-yl)piperidin-4-yl]-4-(trifluoromethyl)-1,4,5,7-tetrahydro-6H-pyrazolo[3,4-b]pyridin-6-one] | 160 nM
O=C1Nc2[nH]nc(C3CCN(c4ccc(OC(F)F)cn4)CC3)c2[C@@H](C(F)(F)F)[C@H]1O (racemic) [Example 37, cis-3-{1-[5-(Difluoromethoxy)pyridin-2-yl]piperidin-4-yl}-5-hydroxy-4-(trifluoromethyl)-1,4,5,7-tetrahydro-6H-pyrazolo[3,4-b]pyridin-6-one] | 94 nM
O=C1Nc2[nH]nc(C3CCN(c4ccc(C(F)(F)F)cn4)CC3)c2C(O)(C(F)(F)F)C1O (stereo not drawn) [Example 4, 4,5-Dihydroxy-4-(trifluoromethyl)-3-{1-[5-(trifluoromethyl)pyridin-2-yl]piperidin-4-yl}-1,4,5,7-tetrahydro-6H-pyrazolo[3,4-b]pyridin-6-one] | 22 nM
N#Cc1cncc(N2CCC(c3n[nH]c4c3[C@@H](C(F)(F)F)[C@@H](O)C(=O)N4)CC2)c1 (single isomer, unassigned) [Example 31, (+)-5-{4-[cis-5-Hydroxy-6-oxo-4-(trifluoromethyl)-4,5,6,7-tetrahydro-1H-pyrazolo[3,4-b]pyridin-3-yl]piperidin-1-yl}pyridine-3-carbonitrile] | 34 nM
N#Cc1ncc(N2CCC(c3n[nH]c4c3[C@@H](C(F)(F)F)[C@@H](O)C(=O)N4)CC2)cc1F (single isomer, unassigned) [Example 24, (+)-3-Fluoro-5-{4-[cis-5-hydroxy-6-oxo-4-(trifluoromethyl)-4,5,6,7-tetrahydro-1H-pyrazolo[3,4-b]pyridin-3-yl]piperidin-1-yl}pyridine-2-carbonitrile] | 30 nM
Cc1cc(N2CCC(c3n[nH]c4c3[C@@H](C(F)(F)F)[C@@H](O)C(=O)N4)CC2)cnc1C#N (single isomer, unassigned) [Example 27, (+)-5-{4-[cis-5-Hydroxy-6-oxo-4-(trifluoromethyl)-4,5,6,7-tetrahydro-1H-pyrazolo[3,4-b]pyridin-3-yl]piperidin-1-yl}-3-methylpyridine-2-carbonitrile] | 37 nM
O=C(OCc1ccccc1)c1cc(N2CCC(c3n[nH]c4c3[C@@H](C(F)(F)F)[C@@H](O)C(=O)N4)CC2)ncc1C(F)(F)F (single isomer, unassigned) [Example 32, Benzyl (+)-2-{4-[cis-5-hydroxy-6-oxo-4-(trifluoromethyl)-4,5,6,7-tetrahydro-1H-pyrazolo[3,4-b]pyridin-3-yl]piperidin-1-yl}-5-(trifluoromethyl)pyridine-4-carboxylate] | 7 nM

The remaining lines, values ahead:

EC50 | Structure (SMILES)
65 nM | O=C1Nc2[nH]nc(C3CCN(c4nnc(C(F)(F)F)s4)CC3)c2[C@@H](C(F)(F)F)[C@H]1O (single isomer, unassigned) [Example 26, (+)-cis-5-Hydroxy-4-(trifluoromethyl)-3-{1-[5-(trifluoromethyl)-1,3,4-thiadiazol-2-yl]piperidin-4-yl}-1,4,5,7-tetrahydro-6H-pyrazolo[3,4-b]pyridin-6-one]
880 nM | O=C1Nc2[nH]nc(C3CCN(c4ccc(C(F)(F)F)cn4)CC3)c2[C@@H](C(F)(F)F)[C@@H]1O (racemic) [Example 1, trans-5-Hydroxy-4-(trifluoromethyl)-3-{1-[5-(trifluoromethyl)pyridin-2-yl]piperidin-4-yl}-1,4,5,7-tetrahydro-6H-pyrazolo[3,4-b]pyridin-6-one]
8 nM | O=C1Nc2[nH]nc(C3CCN(c4ccc(C(F)(F)F)nc4)CC3)c2[C@@H](C(F)(F)F)[C@H]1O (single isomer, unassigned) [Example 23, (+)-cis-5-Hydroxy-4-(trifluoromethyl)-3-{1-[6-(trifluoromethyl)pyridin-3-yl]piperidin-4-yl}-1,4,5,7-tetrahydro-6H-pyrazolo[3,4-b]pyridin-6-one]
290 nM | O=C1Nc2[nH]nc(C3CCN(c4nc(C(F)(F)F)cs4)CC3)c2[C@@H](C(F)(F)F)[C@H]1O (racemic) [Example 15, cis-5-Hydroxy-4-(trifluoromethyl)-3-{1-[4-(trifluoromethyl)-1,3-thiazol-2-yl]piperidin-4-yl}-1,4,5,7-tetrahydro-6H-pyrazolo[3,4-b]pyridin-6-one]
92 nM | CC(C)Oc1ccc(N2CCC(c3n[nH]c4c3[C@@H](C(F)(F)F)[C@@H](O)C(=O)N4)CC2)cn1 (single isomer, unassigned) [Example 39, cis-5-hydroxy-3-[1-(6-isopropoxypyridin-3-yl)piperidin-4-yl]-4-(trifluoromethyl)-1,4,5,7-tetrahydro-6H-pyrazolo[3,4-b]pyridin-6-one]
29 nM | O=C1Nc2[nH]nc(C3CCN(c4cnc(C(F)(F)F)cn4)CC3)c2[C@@H](C(F)(F)F)[C@H]1O (racemic) [Example 11, cis-5-Hydroxy-4-(trifluoromethyl)-3-{l-[5-(trifluoromethyl)pyrazin-2-yl]piperidin-4-yl}-1,4,5,7-tetrahydro-6H-pyrazolo[3,4-b]pyridin-6-one]
340 nM | O=C1Nc2[nH]nc(C3CCN(c4cnc(C(F)(F)F)cn4)CC3)c2[C@@H](C(F)(F)F)[C@@H]1O (racemic) [Example 10, trans-5-Hydroxy-4-(trifluoromethyl)-3-{1-[5-(trifluoromethyl)pyrazin-2-yl]piperidin-4-yl}-1,4,5,7-tetrahydro-6H-pyrazolo[3,4-b]pyridin-6-one]
35 nM | O=C1Nc2[nH]nc(C3CCN(c4cnc(C(F)(F)F)nc4)CC3)c2[C@@H](C(F)(F)F)[C@H]1O (racemic) [Example 12, cis-5-Hydroxy-4-(trifluoromethyl)-3-{1-[2-(trifluoromethyl)pyrimidin-5-yl]piperidin-4-yl}-1,4,5,7-tetrahydro-6H-pyrazolo[3,4-b]pyridin-6-one]
380 nM | O=C1Nc2[nH]nc(C3CCN(c4ncc(C(F)(F)F)cc4Cl)CC3)c2[C@@H](C(F)(F)F)[C@H]1O (racemic) [Example 14, cis-3-{1-[3-Chloro-5-(trifluoromethyl)pyridin-2-yl]piperidin-4-yl}-5-hydroxy-4-(trifluoromethyl)-1,4,5,7-tetrahydro-6H-pyrazolo[3,4-b]pyridin-6-one]
2220 nM | O=C1Nc2[nH]nc(C3CCN(c4ccc(C(F)(F)F)nn4)CC3)c2[C@@H](C(F)(F)F)[C@@H]1O (racemic) [Example 6, trans-5-Hydroxy-4-(trifluoromethyl)-3-{1-[6-(trifluoromethyl)pyridazin-3-yl]piperidin-4-yl}-1,4,5,7-tetrahydro-6H-pyrazolo[3,4-b]pyridin-6-one]
40 nM | O=C1Nc2[nH]nc(C3CCN(c4ccc(C(F)(F)F)cn4)CC3)c2[C@@H](C(F)(F)F)[C@H]1O (racemic) [Example 2, cis-5-Hydroxy-4-(trifluoromethyl)-3-{1-[5-(trifluoromethyl)pyridin-2-yl]piperidin-4-yl}-1,4,5,7-tetrahydro-6H-pyrazolo[3,4-b]pyridin-6-one]
24 nM | O=C1Nc2[nH]nc(C3CCN(c4cncc(C(F)(F)F)c4)CC3)c2[C@@H](C(F)(F)F)[C@H]1O (single isomer, unassigned) [Example 38, (+)-cis-5-Hydroxy-4-(trifluoromethyl)-3-{1-[5-(trifluoromethyl)pyridin-3-yl]piperidin-4-yl}-1,4,5,7-tetrahydro-6H-pyrazolo[3,4-b]pyridin-6-one]
62 nM | O=C1Nc2[nH]nc(C3CCN(c4cccc(C(F)(F)F)n4)CC3)c2[C@@H](C(F)(F)F)[C@H]1O (racemic) [Example 16, cis-5-Hydroxy-4-(trifluoromethyl)-3-{1-[6-(trifluoromethyl)pyridin-2-yl]piperidin-4-yl}-1,4,5,7-tetrahydro-6H-pyrazolo[3,4-b]pyridin-6-one]
